From PMC6286779, “HLA-A2-Restricted Epitopes Identified from MTA1 Could Elicit Antigen-Specific Cytotoxic T Lymphocyte Response” (Journal of Immunology Research, 2018)

Key:
[1] = target: T1, peptide/HLA-A*0201 complexes (Homo sapiens, UniProt P04439, D140Y/D185E/D98H/E176V/E277Q/G131W/G231S/I119V/I121R/I166T/I218V/L300P/L318F/N151K/N90K/P208A/P217A/Q86G/Q94H/R138H/R169H/T345S); experiment: T2 stabilization (stability) assay; format: binding; conditions: T2 cells, peptide 50 μg/ml, 18 h, then brefeldin A 10 μg/ml 1 h; read at 0, 2, 4, 6 h, 37°C; flow cytometry
T1 construct: endogenous in cells; host or cells: T2 lymphoblastic cell line (TAP-deficient)
Method: For the stability assay, each of the selected peptides (50 μg/ml) was incubated with T2 cells (1 × 10^6 cells/ml) for 18 h in serum-free RPMI 1640 medium supplemented with 3 μg/ml β2-M at 37°C. Thereafter, cells were washed twice and incubated with brefeldin A (10 μg/ml, eBiosciences, USA) for 1 h. Subsequently, the cells were washed and incubated for 0, 2, 4, and 6 h at 37°C. Cells were washed twice, stained with BB7.2 for 0.5 h at 4°C. Finally, cells were collected, washed, and analyzed by flow cytometry. Dissociation complex 50 (DC50) was defined as time (t) required for the loss of 50% of the HLA-A^∗0201/peptide complexes stabilized at 0 h.

[2] = tested on: PBMCs from HLA-A*02+ healthy donors; experiment: IFN-γ ELISPOT of CTLs induced in vitro; format: cell-based, human; conditions: PBMCs of six donors stimulated with peptide 10 μg/ml three times, day 21; stimulators peptide-pulsed T2 cells (50 μg/ml); 1 × 10^5 effectors; mean, n = 6
Method: CTL induction in vitro was conducted according to the procedures previously described. Briefly, PBMCs from eight HLA-A^∗02^+ healthy donors were isolated using Ficoll-Paque density gradient centrifugation and resuspended in RPMI 1640 medium supplemented with 10% FBS. Then, PBMCs were stimulated three times (once a week) with the indicated peptides (10 μg/ml) or protein MTA1(1–283) (at final concentrations of 0, 1, 10, 30, and 50 μg/ml) for 21 days. Human recombinant cytokine interleukin-2 (IL-2) (50 U/ml) was added on day 3 and 1 day after each stimulation. The cytotoxic assay (lactate dehydrogenase (LDH) assay) and IFN-γ secretion enzyme-linked immunospot (ELISPOT) assay were performed on day 21.
The ELISPOT assay was performed using a commercial kit (Dakewe, China) according to the procedures previously described. Briefly, T2 cells incubated with/without candidate peptide (50 μg/ml) were used as the stimulating cells, effector cells (1 × 10^5) and stimulator cells (peptide-pulsed T2 cells or T2 cells only, 1 × 10^5) were seeded into the 96-well plate precoated with an anti-human (or anti-mouse) IFN-γ antibody. After incubation at 37°C for 18 h, cells were removed, and plates were processed for analysis as instructed. The spot number was determined automatically using a computer-assisted spot analyzer (Dakewe, China).

[3] = tested on: T2 cells pulsed with each peptide; experiment: LDH cytotoxicity assay, CTLs induced in HLA-A2.1/Kb transgenic mice; format: in vivo, human; conditions: 100 μg peptide + 140 μg T helper epitope in IFA s.c. days 0, 5, 10, splenocytes restimulated 6 days, E/T 50 : 1, n = 5
Method: In vivo induction of peptide-specific CTLs was performed as previously described. Briefly, peptide (100 μg) and the IA^b-restricted HBV-core128 T helper epitope (140 μg) emulsified in incomplete Freund's adjuvant (IFA) were used to subcutaneously immunize at the base of the tail of HLA-A2.1/K^b transgenic mice three times on days 0, 5, and 10. On day 11, all mice were sacrificed through cervical dislocation. Spleen lymphocytes were isolated and restimulated once with 10 μg/ml peptide and 10 U/ml mIL-2 in vitro for an additional 6 days. LDH and IFN-γ ELISPOT assays were performed on day 6 after in vitro stimulation. […]
Cytotoxic activity of induced T cells was tested based on the quantitation of LDH release using the nonradioactive cytotoxicity assay kit (Promega, USA) at the gradient E/T ratio [29, 31]. Target cells which expressed different levels of MTA1 or peptide-pulsed T2 cells were used as target cells. The anti-human HLA-A2 antibody (BB7.2) was added 30 min before adding effector cells to determine the HLA restriction. Target cells (5 × 10^3/well) were cocultured with the effector cells at 37°C for 4 h. The percentage of specific lysis of the target cells was determined using the equation: percentage of specific lysis = [(experimental release − effector spontaneous release − target spontaneous release)/(target maximum release − target spontaneous release)] × 100.

Row | Sequence | DC50: time required for the loss of 50% of the HLA-A*0201/peptide complexes stabilized at 0 h [1] [h] | IFN-γ ELISPOT mean spot intensities [2] | lysis rate of peptide-pulsed T2 target cells, CTLs induced in vivo [3] [%]
1 | TLLNETESL [Peptide P129] | >6 | 411 | 31.6
2 | YLIRRIEEL [Peptide P22] | >2 | 566 | 22.43
